Earlier results, collected in patent US20020127223A1, “Method for reducing side effects of a drug” (priority 1984, published 2002).

Settings: administered 3 hours following methotrexate

For `Nc1nc(=O)c2c([nH]1)NCC(CNc1ccc(C(=O)N[C@@H](CCC(=O)O)C(=O)O)cc1)N2C=O` (mixture of isomers) [folinic acid], the “Attenuation of the toxic effects of methotrexate” value is listed as “attenuate the toxic effects of methotrexate”.
